“And” between values parts separate entries of the source, which are not always exact repeats. Identical values can stand only once. “Also recorded” adds a separate entry of the source.
Columns and labels:
[1] = test system: herpes labialis (herpes simplex); assay: Treatment of herpes labialis (cold sores) in an individual; type: in vivo, human; details: 100 mg dose upon first feeling the onset of a cold sore
Description: This example illustrates administering isomyosmine to treat herpes labialis (cold sores), a type of herpes simplex occurring on the lip. An individual who experiences periodic outbreaks of herpes labialis was administered a 100 mg dose of isomyosmine upon first feeling the onset of a cold sore.

surgical incisions = assay: Topical administration for wound healing; type: in vivo, human; details: e.g., avoid scarring around surgical incisions
Source text: In another aspect, a method of treating a wound comprises administering to an individual in need thereof a pharmaceutical composition containing a therapeutically effective amount of isomyosmine or a pharmaceutically acceptable salt thereof.

MAO-A = target: T1, MAO-A (Homo sapiens, UniProt P21397); assay: MAO-Glo luminescent assay, MAO-A inhibition; type: biochemical; details: compared among isomyosmine, myosmine, anatabine, anabasine, nornicotine; clorgyline positive control
T1 construct: purchased
T1 sequence (P21397 1-527): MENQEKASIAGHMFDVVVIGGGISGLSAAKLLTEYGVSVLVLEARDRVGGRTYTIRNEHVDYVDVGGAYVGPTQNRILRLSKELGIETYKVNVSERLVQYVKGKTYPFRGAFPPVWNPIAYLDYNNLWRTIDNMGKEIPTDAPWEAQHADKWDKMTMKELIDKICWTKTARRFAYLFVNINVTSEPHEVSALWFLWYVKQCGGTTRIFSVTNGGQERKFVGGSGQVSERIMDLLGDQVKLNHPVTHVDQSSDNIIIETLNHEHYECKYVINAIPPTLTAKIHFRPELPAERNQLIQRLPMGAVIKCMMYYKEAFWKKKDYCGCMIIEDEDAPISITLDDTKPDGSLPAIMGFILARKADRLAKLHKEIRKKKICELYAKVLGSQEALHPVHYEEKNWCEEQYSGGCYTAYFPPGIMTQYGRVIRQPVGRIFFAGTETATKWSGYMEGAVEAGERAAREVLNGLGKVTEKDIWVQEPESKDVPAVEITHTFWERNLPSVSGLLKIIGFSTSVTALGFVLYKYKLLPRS
Source text: (§1) This example describes experiments for determining monoamine oxidase (MAO) inhibition for isomyosmine and other alkaloids. MAOs are enzymes located on the outer membrane of mitochondria and are involved in the catabolism of monoamine neurotransmitters. There are two well-characterized isoenzymes: MAO-A, which predominantly catabolizes serotonin and norepinephrine, and MAO-B, which preferentially catabolizes benzylamine and phenylethylamine. Dopamine and tyramine are metabolized by both isoforms.
(§2) To detect the activity of MAO, a luminescent method (MAO-Glo Assay kit, from Promega, Cat #V1401) was used. In this method, a MAO substrate (a derivative of beetle luciferin provided in the kit) is mixed with the compound to be tested (in this case, myosmine and control compounds). Then, the MAO enzymes (either A or B, purchased separately) are added to the mixture and incubated with the reaction for 1 hour at room temperature. The MAO enzymes, if not inhibited by the test compound, will convert the substrate into methyl ester luciferin. Finally, a luciferin detection reagent (provided by the kit) is added (20 minutes at room temperature) to stop the MAO reaction and convert methyl ester luciferin into D-luciferin. […] The luminescent signal is measured and recorded using a luminometer. […]

[2] = test system: individual being treated for type II diabetes; assay: Individual with type II diabetes treated with isomyosmine; type: in vivo, human; details: one individual, 100 mg per day, following three months of treatment; taken off existing diabetes medication
Description: (§3) This example illustrates administering isomyosmine to treat high blood pressure. Twelve individuals experiencing high blood pressure were each administered isomyosmine at dose of 100 mg per day. […] The blood pressure of one of the individuals was measured to be 145/86 mmHg without isomyosmine in the bloodstream and was measured to be 109/59 mmHg while being treated with isomyosmine. Another of the individuals was being treated for type II diabetes at the beginning of the treatment.

[3] = test system: stage-four cancer patient diagnosed with autoimmune amyloidosis; assay: Treatment of a stage-four cancer patient with autoimmune amyloidosis; immunoglobulin light chain Kappa/Lambda detection in blood; type: in vivo, human; details: for Lambda Light Chains / Free Light Chains Ratio / Kappa Light Chains: 250 mg daily; for Lambda Light Chains: initial 6.5, standard range 5.7-26.3; for Free Light Chains Ratio: initial 75.38, standard range 0.26-1.65; for Kappa Light Chains: initial 490.0, standard range 3.3-19.4
Description: This example illustrates treating a stage-four cancer patient who had been diagnosed with autoimmune amyloidosis. At the time treatment began, the individual was bedridden under hospice care and told they had only a few days to live. The individual was administered a daily dose of 250 mg isomyosmine.
The patient's blood was tested using conventional immunoglobulin light chain Kappa/Lambda detection. The immunoglobulin kappa and lambda (Ig κ/λ) in situ hybridization (ISH) system is designed for the detection of human kappa and lambda immunoglobulin light chain messenger RNA (mRNA) in tissue sections and blood and bone marrow smears. The system uses biotin-labeled oligonucleotide probes. The probe-mRNA duplex is indirectly detected using an enzyme-conjugated antibody targeting the biotin conjugate. For color development, a chromogenic substrate is added. Enzymatic reaction of the chromogenic substrate leads to the formation of a color precipitate that is visualized by light microscopy.

MAO-B = target: T2, MAO-B (Homo sapiens, UniProt P27338); assay: MAO-Glo luminescent assay, MAO-B inhibition; type: biochemical; details: compared among isomyosmine, myosmine, anatabine, anabasine, nornicotine
T2 construct: purchased
T2 sequence (P27338 1-520): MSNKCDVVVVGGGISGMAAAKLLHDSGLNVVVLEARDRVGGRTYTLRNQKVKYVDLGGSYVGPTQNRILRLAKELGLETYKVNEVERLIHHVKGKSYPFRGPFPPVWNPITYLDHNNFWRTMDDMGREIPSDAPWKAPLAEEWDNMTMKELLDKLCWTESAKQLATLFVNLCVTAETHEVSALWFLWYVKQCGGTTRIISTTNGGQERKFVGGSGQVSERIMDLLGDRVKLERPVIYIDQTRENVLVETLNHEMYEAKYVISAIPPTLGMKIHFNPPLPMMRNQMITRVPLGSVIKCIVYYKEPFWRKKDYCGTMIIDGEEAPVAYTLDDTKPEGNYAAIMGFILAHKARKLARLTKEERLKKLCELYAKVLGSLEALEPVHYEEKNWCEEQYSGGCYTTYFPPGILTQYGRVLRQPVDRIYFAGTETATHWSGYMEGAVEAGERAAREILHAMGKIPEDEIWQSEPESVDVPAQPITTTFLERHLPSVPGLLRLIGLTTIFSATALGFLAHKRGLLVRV
Source text: as §1, §2

[4] = test system: individuals (peripheral capillary oxygen saturation); assay: Blood oxygen saturation (SpO2) by pulse oximetry in individuals; type: in vivo, human; details: one hour after a single dose (50-100 mg), seven individuals
Source text: This example illustrates the effect of isomyosmine on normal blood oxygen saturation levels (SpO2). SpO2 refers to peripheral capillary oxygen saturation, an estimate of the amount of oxygen in the blood. More specifically, it is the percentage of oxygenated hemoglobin (hemoglobin containing oxygen) compared to the total amount of hemoglobin in the blood (oxygenated and non-oxygenated hemoglobin). SpO2 can be measured by pulse oximetry, an indirect, non-invasive method. It works by emitting and then absorbing a light wave passing through blood vessels (or capillaries) in the fingertip. A variation of the light wave passing through the finger will give the value of the SpO2 measurement because the degree of oxygen saturation causes variations in the blood's color.

[5] = test system: individuals experiencing high blood pressure; assay: Treatment of individuals experiencing high blood pressure; type: in vivo, human; details: 100 mg per day
Description: as §3

Structure (SMILES): C1=NC(c2cccnc2)CC1 (stereo not shown) [isomyosmine, 3-(3,4-dihydro-2H-pyrrol-2-yl)-pyridine]
- outbreak of cold sore [1]: effective to prevent the outbreak of the cold sore
- wound healing (result in words) (surgical incisions): dramatically improve healing
- inhibiting the enzymatic activity of MAO-A (result in words, FIG. 3) (MAO-A): most potent of the five; also recorded: potent inhibitor
- symptoms of diabetes [2]: no symptoms of diabetes
- Lambda Light Chains ([3]; 3 weeks): 10.9 mg/L
- Free Light Chains Ratio ([3]; 3 weeks): 55.23
- Kappa Light Chains ([3]; 3 weeks): 602.0 mg/L
- Lambda Light Chains ([3]; 9 weeks): 9.2 mg/L
- Free Light Chains Ratio ([3]; 9 weeks): 42.83
- Kappa Light Chains ([3]; 9 weeks): 394.0 mg/L
- Lambda Light Chains ([3]; 12 weeks): 7.1 mg/L
- Free Light Chains Ratio ([3]; 12 weeks): 29.58
- Kappa Light Chains ([3]; 12 weeks): 210.0 mg/L
- Lambda Light Chains ([3]; 14 weeks): 3.0 mg/L
- Free Light Chains Ratio ([3]; 14 weeks): 64.33
- Kappa Light Chains ([3]; 14 weeks): 193.0 mg/L
- Lambda Light Chains ([3]; 17 weeks): 3.6 mg/L
- Free Light Chains Ratio ([3]; 17 weeks): 28.89
- Kappa Light Chains ([3]; 17 weeks): 104.0 mg/L
- individual's symptoms ([3]; daily dose of 250 mg, within two weeks of treatment, able to get out of bed and walk around): remarkably improved
- inhibiting the activity of MAO-B (result in words, FIG. 4) (MAO-B): most potent among the five alkaloids tested; also recorded: potent inhibitor
- blood oxygenation (result in words) [4]: significant increase in blood oxygenation
- Dosed SpO2 ([4]; base SpO2 94.0-97.0): 98.0 (5×) and 99.0 (2×)
- blood pressure while being treated ([5]; one individual, 145/86 mmHg without isomyosmine in the bloodstream): 109/59
- change in blood pressure during treatment ([5]; twelve individuals): reduction in blood pressure
